One assay has as its system AKO mice. Kind of assay: GW treatment in mouse model of ALD (AKO mice), fatty acid analysis by GC/MS and gene expression. It counts as in vivo. An excerpt: ALD is a rare genetic disorder caused by defects in peroxisomal oxidation of very long-chain fatty acids (VLCFAs), resulting in systemic accumulation of VLCFAs, which causes tissue defects mainly in the central nervous system and the adrenal glands. The majority of VLCFAs in the body are endogenously synthesized from long-chain fatty acids (LCFAs). Therefore, one potential way to prevent VLCFA accumulation in ALD is by inducing mitochondrial LCFA oxidation to reduce the availability of LCFAs for VLCFA biosynthesis. In order to test this, a previously described mouse model of ALD was used, in which the X-linked adrenoleukodystrophy gene abcdl was systemically ablated and the knockout (AKO) mice faithfully recapitulated the abnormal VLCFA accumulation phenotype seen in ALD patients.
3-month-old AKO mice were treated with or without GW and their tissues collected for free FA analysis using GC/MS.

Another assay concerns the target T1, Human PPARδ LBD (Homo sapiens, UniProt Q03181).
T1 construct: (PPARδ amino acid 128 to C-terminus); expressed in transfected cells; host or cells: CV-1 cells
T1 sequence (Q03181 128-441 limits assumed): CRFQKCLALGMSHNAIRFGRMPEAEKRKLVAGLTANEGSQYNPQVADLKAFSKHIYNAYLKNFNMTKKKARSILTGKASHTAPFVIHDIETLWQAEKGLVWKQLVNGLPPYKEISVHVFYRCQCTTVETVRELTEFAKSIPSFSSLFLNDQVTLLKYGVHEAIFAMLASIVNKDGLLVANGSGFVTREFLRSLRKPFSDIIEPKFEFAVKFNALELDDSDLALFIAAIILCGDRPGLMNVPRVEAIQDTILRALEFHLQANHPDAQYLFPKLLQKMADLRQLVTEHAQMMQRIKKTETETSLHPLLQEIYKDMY
Kind of assay: PPARδ activity screen (GAL4-PPARδ LBD luciferase transactivation in CV-1 cells). It is filed as cell-based. How it is done:
Cell Culture and Transfection: CV-1 cells were grown in DMEM+10% charcoal stripped FCS. Cells were seeded into 384-well plates the day before transfection to give a confluency of 50-80% at transfection. A total of […] containing 0.64 micrograms pCMX-PPARDelta LBD, 0.1 micrograms pCMXβGal, 0.08 micrograms pGLMH2004 reporter and 0.02 micrograms pCMX empty vector was transfected per well using FuGene transfection reagent according to the manufacturer's instructions (Roche).
Plasmids: Human PPARδ was used to PCR amplify the PPARδ LBD. […] Ensuing fusions were verified by sequencing.
Compounds: All compounds were dissolved in DMSO and diluted 1:1000 upon addition to the cells. Compounds were tested in quadruple in concentrations ranging from 0.001 to 100 μM. […] Each compound was tested in at least two separate experiments.
Luciferase assay: Medium including test compound was aspirated and washed with PBS. 50 μl PBS including 1 mM Mg++ and Ca++ were then added to each well. The luciferase assay was performed using the LucLite kit according to the manufacturer's instructions (Packard Instruments). Light emission was quantified by counting on a Perkin Elmer Envision reader. […] Beta-galactosidase assays were performed in the microwell plates using a kit from Promega and read in a Perkin Elmer Envision reader. The beta-galactosidase data were used to normalize (transfection efficiency, cell growth etc.) the luciferase data.
Statistical Methods: The activity of a compound is calculated as fold induction compared to an untreated sample. […] EC50 values were calculated via non-linear regression using GraphPad PRISM (GraphPad Software, San Diego, Calif.).

Another assay has as its target T2, PPARδ (Homo sapiens, UniProt Q03181).
T2 construct: expressed in transfected cells; host or cells: PathHunter NHR cell lines
T2 sequence (Q03181 1-441): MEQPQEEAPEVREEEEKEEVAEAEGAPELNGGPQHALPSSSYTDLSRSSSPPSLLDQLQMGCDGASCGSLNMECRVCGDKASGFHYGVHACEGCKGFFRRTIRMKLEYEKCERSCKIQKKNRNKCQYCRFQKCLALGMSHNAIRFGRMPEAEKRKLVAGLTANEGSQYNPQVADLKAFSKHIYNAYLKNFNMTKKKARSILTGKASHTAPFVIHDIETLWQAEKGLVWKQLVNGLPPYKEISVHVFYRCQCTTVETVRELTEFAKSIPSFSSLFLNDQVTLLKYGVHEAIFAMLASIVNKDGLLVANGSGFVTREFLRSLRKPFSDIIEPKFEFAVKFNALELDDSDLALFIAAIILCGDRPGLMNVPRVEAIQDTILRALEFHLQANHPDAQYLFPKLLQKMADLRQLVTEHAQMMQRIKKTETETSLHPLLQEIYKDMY
Kind of assay: Nuclear Hormone Receptor (NHR) protein interaction assay (PathHunter), agonist format. It counts as cell-based. How it is done: • Cell Handling: PathHunter NHR cell lines were expanded from freezer stocks according to standard procedures. Cells were seeded in a total volume of 20 μL into white walled, 384-well microplates and incubated at 37° C. for the appropriate time prior to testing. Assay media contained charcoal-dextran filtered serum to reduce the level of hormones present. • Agonist Format: For agonist determination, cells were incubated with sample to induce response. Intermediate dilution of sample stocks was performed to generate 5× sample in assay buffer. 5 μL of 5× sample was added to cells and incubated at 37° C. or room temperature for 3-16 hours. Final assay vehicle concentration was 1%. • Antagonist Format: For antagonist determination, cells were pre-incubated with antagonist followed by agonist challenge at the EC80 concentration. Intermediate dilution of sample stocks was performed to generate 5× sample in assay buffer. 5 μL of 5× sample was added to cells and incubated at 37° C. or room temperature for 60 minutes. Vehicle concentration was 1%. […] Microplates were read following signal generation with a PerkinElmer Envision™ instrument for chemiluminescent signal detection. • Data Analysis: Compound activity was analyzed using CBIS data analysis suite (ChemInnovation, CA). For agonist mode assays, percentage activity was calculated using the following formula: % Activity=100%×(mean RLU of test sample−mean RLU of vehicle control)/(mean MAX control ligand−mean RLU of vehicle control).
For antagonist mode assays, percentage inhibition was calculated using the following formula: % Inhibition=100%×(1−(mean RLU of test sample−mean RLU of vehicle control)/(mean RLU of EC80 control−mean RLU of vehicle control)). Note that for select assays, the ligand response produces a decrease in receptor activity (inverse agonist with a constitutively active target). For those assays inverse agonist activity was calculated using the following formula: % Inverse Agonist Activity=100%×((mean RLU of vehicle control−mean RLU of test sample)/(mean RLU of vehicle control−mean RLU of MAX control)).

The mark [1] stands for this setting: EC50 nM, Table 1, CV-1 cells, GAL4-PPARδ LBD luciferase reporter, compound 24 h.
Where [2] appears, read: PPARd, EC50 (nM) (from Salk), Table 15.
Where [3] appears, read: Table 1, CV-1 cells, GAL4-PPARδ LBD luciferase reporter, compound 24 h, read-out: EC50.
Where [4] appears, read: Table 15, read-out: PPARd, EC50 (nM) (from Salk).
[5] abbreviates: PathHunter NHR cell line, agonist format, read-out: NHR protein interaction assay, EC50 (nM) for PPARδ.

Like-named read-outs stand apart in the source and are kept apart here.

For `Cc1cc(SCc2sc(-c3ccc(C(F)(F)F)cc3)nc2C)ccc1OCC(=O)O` [GW], the “levels of VLCFAs (C22:0, C23:0, C24:0, C26:0) in AKO brain and liver” value in the assay on AKO mice (8 weeks of GW treatment, 3-month-old AKO mice) was “significantly reduced”. Further, the “liver C26:0” value in the assay with AKO mice (8 weeks of GW treatment, most GW-treated animals) was “cleared”. Besides, in the assay on AKO mice (AKO liver and muscle), the “most saturated LCFAs (C12:0 to C22:0) and total FAs” value is “significantly reduced”. The “expression of mitochondrial FA oxidation genes (Cptla and lb, Slc25a20, Acadl)” value in the assay on AKO mice (AKO liver and skeletal muscle) is reported as “dramatically induced”. Consider `CCC(C)N(Cc1ccccc1OCCCCCC(=O)O)C(=O)c1ccc(-c2ccco2)cc1` (stereo not shown) [compound 37], for which the 50% effective concentration (EC50) (as a rule, the concentration at which the effect is half-maximal) amounted to 41 nM on Human PPARδ LBD (setting [1]), 41 nM on Human PPARδ LBD (setting [2]) and 17.5 nM at PPARδ. For `CC(C)N(Cc1ccccc1OCCCCCC(=O)O)C(=O)c1ccc(-c2ccccc2)cc1` [compound 57], the figures for the EC50 at Human PPARδ LBD (setting [1]), at Human PPARδ LBD (setting [2]) and on PPARδ were 60 nM, 42 nM and 25.9 nM, respectively. As for `CC(C)N(Cc1ccccc1OCCCCCC(=O)O)C(=O)c1ccc(-c2ccco2)cc1` [compound 61], the concentration for a half-maximal effect (EC50) came out at 9 nM at Human PPARδ LBD (setting [3]), 9 nM on Human PPARδ LBD (setting [4]) and 5.9 nM on PPARδ (setting [5]). Consider `CC(C)N(Cc1ccccc1OCCCCCC(=O)O)C(=O)c1ccc(-c2ccoc2)cc1` [compound 62], for which the EC50 at Human PPARδ LBD (setting [3]) amounted to 61 nM; on Human PPARδ LBD (setting [4]), 61 nM; at PPARδ (setting [5]) it was 36.8 nM.

The compound `CC(C)N(Cc1ccccc1OCCCCCC(=O)O)C(=O)c1ccc(-c2cccs2)cc1` [compound 63] returned a half-maximal effective concentration (EC50) at PPARδ of 8.4 nM. As for `CC(C)N(Cc1ccccc1OCCCCCC(=O)O)C(=O)c1ccc(-c2ccsc2)cc1` [compound 64], the EC50 at Human PPARδ LBD (setting [3]) is 17.2 nM; on Human PPARδ LBD (setting [4]), 17.2 nM; on PPARδ (setting [5]) it was 8.02 nM. Turning to `COc1ccccc1-c1ccc(C(=O)N(Cc2ccccc2OCCCCCC(=O)O)C2CC2)cc1` [compound 78], it took 1870 nM to reach a half-maximal effect on Human PPARδ LBD (setting [1]) (EC50). On the same count and under the same terms, the figure for `COc1cccc(-c2ccc(C(=O)N(Cc3ccccc3OCCCCCC(=O)O)C3CC3)cc2)c1` [compound 79] is 301 nM; for `COc1ccc(-c2ccc(C(=O)N(Cc3ccccc3OCCCCCC(=O)O)C3CC3)cc2)cc1` [compound 80] it is 439 nM. The same measure, in the same setting: the same measure for `O=C(O)CCCCCOc1ccccc1CN(C(=O)c1ccc(-c2ccccc2F)cc1)C1CC1` [compound 81]: 597 nM.

In turn, `O=C(O)CCCCCOc1ccccc1CN(C(=O)c1ccc(-c2cccc(F)c2)cc1)C1CC1` [compound 82] had an EC50 on Human PPARδ LBD (setting [1]) of 150 nM.

On to `O=C(O)CCCCCOc1ccccc1CN(C(=O)c1ccc(-c2ccc(F)cc2)cc1)C1CC1` [compound 83], for which, on Human PPARδ LBD (setting [1]), the response was half-maximal at 364 nM (EC50). Same read-out and setting: the same measure for `CCc1ccccc1-c1ccc(C(=O)N(Cc2ccccc2OCCCCCC(=O)O)C2CC2)cc1` [compound 84]: 2500 nM; for `Cc1cccc(-c2ccc(C(=O)N(Cc3ccccc3OCCCCCC(=O)O)C3CC3)cc2)c1C` [compound 86]: 1300 nM. At Human PPARδ LBD (setting [1]), `Cc1ccc(C)c(-c2ccc(C(=O)N(Cc3ccccc3OCCCCCC(=O)O)C3CC3)cc2)c1` [compound 87] had an EC50 of 1150 nM. Regarding `Cc1cc(C)cc(-c2ccc(C(=O)N(Cc3ccccc3OCCCCCC(=O)O)C3CC3)cc2)c1` [compound 89], at Human PPARδ LBD (setting [1]), the response was half-maximal at 1760 nM (EC50). Same read-out and setting: the same measure for `O=C(O)CCCCCOc1ccccc1CN(C(=O)c1ccc(-c2ccccc2C(F)(F)F)cc1)C1CC1` [compound 90]: 1300 nM; for `O=C(O)CCCCCOc1ccccc1CN(C(=O)c1ccc(-c2cccc(C(F)(F)F)c2)cc1)C1CC1` [compound 91]: 1150 nM. Still for that read-out and setting: the figure for `O=C(O)CCCCCOc1ccccc1CN(C(=O)c1ccc(-c2ccc(C(F)(F)F)cc2)cc1)C1CC1` [compound 92] is 1760 nM; for `CCCc1ccc(-c2ccc(C(=O)N(Cc3ccccc3OCCCCCC(=O)O)C3CC3)cc2)cc1` [compound 93] it is 1340 nM.

The values above are taken from patent publication US10035819B2, “PPAR agonists and methods of use thereof” (The Salk Institute for Biological Studies, priority 2014, dated 2018).
